US11241480B2, “Methods for modulation of dietary and microbial exposure with compositions comprising an EGFR ligand” (Washington University, priority 2017, dated 2022)

Columns and labels:
[1] = test system: goblet cell associated antigen passages (GAPs); assay: Enumeration of goblet cell associated antigen passages (GAPs) in SI and colon by in vivo two-photon imaging and fixed sections; parameters: species or system mice
Procedure: Intravital two-photon (2P) microscopy: Mice were anesthetized using nebulized isofluorane in 95% O2/5% CO2. Intravital preparation of the intestine was performed as previously described. To detect GAPs, lysine fixable fluorescently-labeled dextran 10,000 MW (10 mg/mL) and diamidino-2-phenylindole (DAPI; 10 mg/mL) were injected intraluminally 20 minutes prior to imaging, and imaging was performed for up to one hour. To detect paracellular leak fluorescently labeled dextran 3,000 MW (10 mg/mL) and DAPI (10 mg/mL) were injected intraluminally 20 minutes prior to imaging. To detect the extension of trans-epithelial dendrites by APCs, CD11c^YFP or CX3CR1^GFP were imaged as above using 10,000 MW fluorescent dextran to outline the epithelial surface. Tissues were excited using a Ti:sapphire laser tuned to 890 nm (Chameleon X R, Coherent). Time-lapse imaging was performed with a custom-built 2P microscope running ImageWarp acquisition software (A&B Software, New London, Conn.). Epithelial integrity was assessed by dextran and DAPI staining as described. Following imaging, tissues were placed in 10% formalin buffered phosphate solution (Fisher Scientific) to fix dextrans in place to confirm 2P findings and for further analysis by immunofluorescence microscopy.
In some experiments mice were treated with 150 μg/kg carbachol chloride i.p. 10 minutes before dextran, 100 mg/kg tropicamide (mAChR4 selective antagonist) i.p. 20 minutes before dextran, 500 μg/kg tyrphostin AG1478 (inhibitor of EGFR phosphorylation) i.p. 20 minutes before dextran, 10 mg/kg U-0126 (inhibitor of p42/p44 MAPK phosphorylation) i.p. 20 minutes before dextran, 1-1000 ng EGF (Shenandoah Biotechnologies) injected intraluminally 20 minutes before dextran, 10 μg LPS injected intraluminally 20 minutes before dextran, or 100 μl stomach contents from a DOL 10 mice, or 100 μl heat killed cecal contents from SPF housed adult mice injected intraluminally 20 minutes before dextran was administered. All reagents from Sigma Aldrich, St. Louis, Mo. unless otherwise noted.
Enumeration of GAPs: GAPs were identified as dextran-filled columns measuring approximately 20 μm (height)×5 μm (diameter) traversing the epithelium and containing a nucleus. GAPs were enumerated in the jejunum or mid-transverse colon using Z-stack images of a volume of 225 μm(x) by 250 μm(y) by 50 μm(z) acquired during in vivo 2P imaging as described above. SI GAPs were enumerated as GAPs per villus. When present, colonic GAPs were found on both the surface epithelium and within the crypts, but were enumerated as GAPs per crypt due to difficulty in distinguishing dextran filled GAPs from luminal dextran during in vivo imaging. De-identified and coded video clips were evaluated by a blinded investigator to enumerate GAPS in early life. The number of GAPs per villus and GAPs per crypt seen by 2P imaging were confirmed by immunofluorescence microscopy of tissues that were fixed following 2P imaging. To quantify GAPs per GC, lysine fixable 10,000 MW fluorescent dextran was injected into the lumen and intestines harvested 25 min later. Tissues were fixed with 10% formalin buffered saline for 45 min, sectioned, and stained with antibodies directed against cyt18. GCs were identified cyt18+ epithelial cells with GC morphology and GAPs as dextran containing epithelial cells defined as above.
Intravital two-photon (2P) microscopy: Mice were anesthetized using nebulized isofluorane in 95% O2/5% CO2. Intravital preparation of the intestine was performed as previously described. To detect GAPs, tetramethylrodamine labeled dextran 10,000 MW (10 mg/mL) or fluorescein labeled dextran 10,000 MW (10 mg/mL) and diamidino-2-phenylindole (DAPI; 10 mg/mL) were injected intraluminally 20 minutes prior to imaging and imaging was performed for up to one hour. Tissues were excited using a Ti:sapphire laser tuned to 890 nm (Chameleon XR, Coherent). […]

[2] = test system: colonic LP-APCs (LP-MNPs); assay: Luminal antigen delivery to LP-APCs/LP-MNPs, read out by ex vivo T cell co-culture; type: in vivo, mice; settings: for luminal antigen uptake by colonic APCs (expansion of Ova-specific T-cells): DOL 18 mice, agent concurrent with luminal Ova
Procedure: Analysis of luminal antigen delivery to LP-DCs: Mice received Ova 20 g/L (Sigma Aldrich) for 3 days prior to isolation of LP-APCs (dietary Ova FIG. 1C) or were anesthetized and 2 mg Ova (OTI assay) or 25 mg Ova (OTII assay) dissolved in phosphate buffered saline (PBS), or PBS alone (controls), was injected intraluminally into the SI or colon as previously described. Two hours later cell populations were isolated from the non-Peyer's patch bearing SI LP or non-colonic patch bearing colon LP. APC populations and Ova specific […] T-cells were isolated with flow cytometric cell sorting and cultured at a ratio of 1:10 APCs (1×10^4) to T-cells (1×10^5). As a positive control, 10 μg Ova was added to cultures of APC populations isolated from mice receiving luminal PBS. After 3 days, cultures were evaluated for the number of T-cells by flow cytometry and cell counting.
LP-MNP/T cell co-culture: 1×10^5 flow cytometrically sorted splenic CD3+CD4+Vβ8.3+ CBir1 T cells or 1×10^5 flow cytometrically sorted splenic CD3^+CD4^+Vα2^+Vβ5^+ OTI T cells were cultured with […] CD45+ MHCII+ CD11c+ flow cytometrically sorted SI or colonic LP-MNPs isolated from mice two hours following intraluminal administration of 2 mg Ova or PBS. Some wells were cultured with 10 μg Ova or 10 μg CBir1 Flagellin as a positive control. After three days, cultured cells were counted and analyzed by flow cytometry to determine absolute number of transgenic cells to calculate fold increase of T cells.

COc1cc2ncnc(Nc3cccc(Cl)c3)c2cc1OC [EGFRi, tyrphostin AG1478]
GAP formation in SI and colon ([1]; DOL 8 mice (neonatal phase)): induced colonic and SI GAPs
SI GAP formation ([1]; DOL 18 mice): induced
colonic GAP formation ([1]; DOL 28, post weaning): induced
GAP formation in the SI and colon ([1]; all phases of early life (DOL8, 18, 28)): allowed GAP formation in the SI and colon during all phases of early life
capacity of colonic LP-MNPs to stimulate CBir1 T cells ex vivo ([2]; post-weaning mice (DOL28), EGFR inhibition DOL24 and 26): allowed colonic LP-MNPs from post-weaning mice to capture microbial antigen to stimulate CBir1 T cells ex-vivo

EGF: recombinant murine EGF (Shenandoah); EGFR ligand, given luminally or intracolonically
colonic GAP formation / dextran uptake by colonic epithelial cells ([1]; DOL 14 mice (post-neonatal phase), wildtype): inhibited
colonic GAP formation ([1]; DOL 18 mice (post-neonatal phase), agent given luminally): inhibited GAPs
luminal EGF concentration below which colonic and SI GCs formed GAPs (a concentration that inhibits GAPs on short term exposure) ([1]; DOL ~10 (colon) and DOL ~18 (SI)): < 1000 µg/mL
luminal antigen uptake by colonic APCs (expansion of Ova-specific T-cells) [2]: impaired at expanding Ova-specific T-cells
luminal antigen uptake by colonic APCs (expansion of Ova-specific T-cells) ([2]; listed as recombinant EGF): inhibited GAPs and luminal antigen loading of LP-MNPs
